From patent US10829742B2, “Production of xylitol from glucose by a recombinant strain” (ROQUETTE FRERES, priority 2014, dated 2020)
Where two headings read alike, the source gives them in different places. Blank lines part the entries; values can stand above or below the compound they belong to.

Legend:
[1] = system: D-Ribulose-5-P 3-epimerase; settings: crude extract; cited from earlier work
[2] = system: D-Ribose-5-P keto-isomerase; settings: crude extract; cited from earlier work
[3] = system: Acid phosphatase; settings: crude extract; cited from earlier work
[4] = system: NADH-specific D-ketopentose-oxidoreductase; settings: crude extract; cited from earlier work
[5] = system: NADPH-specific D-ketopentose-oxidoreductase; assay: NADPH-specific D-ketopentose-oxidoreductase kinetic parameters; assay type: biochemical, P. ohmeri ATCC 20209; settings: NADP^+ added in excess, in vitro
Description: As an illustration of its performances, the following tables indicate the enzyme activities involved in the arabitol metabolic pathway of Pichia ohmeri (Sophie […] Thesis, 1992) The Michaelis-Menten constants highlight the affinities of the NADH and NADPH-D-ketopentose-oxidoreductases for each substrate and the corresponding maximum velocities. [table] The Haldane relationship predicts in vivo enzyme kinetic behaviors. The inhibitory effect of NADP^+ on NADPH-specific D-ketopentose-oxidoreductase has been determined in vitro. The activity is 80% less when NADP^+ is added in excess.

[6] = system: NADPH-specific D-ketopentose-oxidoreductase; settings: crude extract; cited from earlier work
[7] = system: Transketolase; settings: crude extract, cited from earlier work

Structure (SMILES): O=C(CO)[C@H](O)[C@H](O)COP(=O)(O)O [D-Ribulose-5-P]
Km [1]: 6.3 mM
VM [1]: 3 U/mg
Km [2]: 0.35 mM
VM [2]: 1.8 U/mg
Km [3]: 4.3 mM
VM [3]: 0.65 U/mg

Structure (SMILES): OC[C@@H](O)[C@@H](O)[C@@H](O)CO [Ribitol]
Km [4]: 16 mM
VM [4]: 0.16 U/mg

inhibitory effect: activity less [5]: 80%
Structure (SMILES): NC(=O)c1ccc[n+]([C@@H]2O[C@H](COP(=O)([O-])OP(=O)(O)OC[C@H]3O[C@@H](n4cnc5c(N)ncnc54)[C@H](OP(=O)(O)O)[C@@H]3O)[C@@H](O)[C@H]2O)c1 [NADP^+]

Structure (SMILES): OC[C@@H](O)C(O)[C@H](O)CO [D-Arabitol]
VM [6]: 0.8 U/mg

Structure (SMILES): O=C(CO)[C@H](O)[C@H](O)CO [D-Ribulose]
Km [4]: 90 mM
VM [4]: 1 U/mg
Km [6]: 72 mM
VM [6]: 3.4 U/mg

Structure (SMILES): OC[C@@H](O)[C@H](O)[C@@H](O)CO [Xylitol]
Km [4]: 7 mM
VM [4]: 0.2 U/mg
VM [6]: 0.15 U/mg

Structure (SMILES): O=C(CO)[C@@H](O)[C@H](O)CO [D-Xylulose]
Km [4]: 5 mM
VM [4]: 0.6 U/mg
VM [6]: 1.5 U/mg

Structure (SMILES): O=C(CO)[C@@H](O)[C@H](O)COP(=O)(O)O [D-Xylulose-5-P]
Km [1]: 6.6 mM
VM [1]: 0.7 U/mg
Km [3]: 16 mM
VM [3]: 0.11 U/mg
Km ([7]; Transketolase (D-ribose-5-P)): 0.2 mM
VM ([7]; Transketolase (D-ribose-5-P)): 0.9 U/mg
Km ([7]; Transketolase (Erythrose-4-P)): 0.6 mM
VM ([7]; Transketolase (Erythrose-4-P)): 1.45 U/mg
